From patent publication US12133901B2, “PSMA ligand targeted compounds and uses thereof” (CASE WESTERN RESERVE UNIVERSITY, priority 2019, dated 2024)
Numbered stars: 1 amine (or outer) side, 2 acyl side, 3 side chain; on linkers, the order of the positions; unused ones are H or OH. Square brackets hold non-standard residues; d marks the D form. Peptide text beside a SMILES is read from it. γGlu = O=C(O)[C@H](CCC(=O)[*:2])N[*:1]; X1 = O=C(C1CCC(CN[*:1])CC1)[*:2]; CO = O=C([*:1])[*:2]; Ahx = NCCCCCC(=O)O

Target: T1, PSMA (Homo sapiens, UniProt Q04609)
T1 construct: LNcap cells were trypsinized and washed with cold Tris buffer; endogenous in cells; host or cells: LNCaP cells (printed 'LNcap'), whole-cell suspension
T1 sequence (Q04609 whole entry): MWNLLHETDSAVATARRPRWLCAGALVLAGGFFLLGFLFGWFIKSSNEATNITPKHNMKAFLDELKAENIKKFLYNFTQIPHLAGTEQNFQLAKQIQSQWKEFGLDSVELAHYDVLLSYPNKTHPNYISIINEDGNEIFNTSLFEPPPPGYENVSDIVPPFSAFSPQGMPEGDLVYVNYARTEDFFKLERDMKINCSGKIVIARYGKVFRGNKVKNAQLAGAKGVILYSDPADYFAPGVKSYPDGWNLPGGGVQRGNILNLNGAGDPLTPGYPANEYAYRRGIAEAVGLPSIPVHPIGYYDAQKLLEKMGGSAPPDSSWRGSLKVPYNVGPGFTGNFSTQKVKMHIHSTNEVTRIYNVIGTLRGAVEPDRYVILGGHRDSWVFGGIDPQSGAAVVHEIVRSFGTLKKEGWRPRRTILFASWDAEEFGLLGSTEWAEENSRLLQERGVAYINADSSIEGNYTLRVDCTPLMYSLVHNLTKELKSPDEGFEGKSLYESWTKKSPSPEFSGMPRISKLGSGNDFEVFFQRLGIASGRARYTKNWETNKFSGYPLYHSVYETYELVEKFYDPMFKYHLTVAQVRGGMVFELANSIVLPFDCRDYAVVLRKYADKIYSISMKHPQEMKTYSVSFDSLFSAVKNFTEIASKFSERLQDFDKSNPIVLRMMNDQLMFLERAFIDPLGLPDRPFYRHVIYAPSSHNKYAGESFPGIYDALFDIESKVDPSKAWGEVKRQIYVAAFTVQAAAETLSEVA
Experiment: Competition binding assay against 3H-ZJ24
Conditions: PSMA-expressing LNcap cells, 12 nM 3H-labelled ZJ24, 1 h at 37° C.; read-out: IC50 (concentration of ligand required to inhibit 50% of binding)
Procedure: LNcap cells were trypsinized and washed with cold Tris buffer (0.5 mM). […] Each group was done in triplicate. The mixture was then centrifuged and washed three times with cold PBS. Finally, 4 m L of EcoLume cocktail (MP biomedicals) was added to each sample, and radioactivity was counted by a scintillation counter. The concentration of ligands required to inhibit 50% of binding (IC50) was determined by GraphPad Prism 3.0.

Compound | IC50 [nM]
NCCCC[C@H](NC(=O)[C@H](CCC(=O)O)NC(=O)[C@H](CCC(=O)O)NC(=O)[C@H](CCC(=O)O)NC(=O)CCCCCNC(=O)C1CCC(CNC(=O)CC[C@H](NC(=O)N[C@@H](CCC(=O)O)C(=O)O)C(=O)O)CC1)C(=O)N[C@@H](Cc1ccc(O)cc1)C(=O)N[C@@H](CS)C(N)=O (stereo partly drawn) [CY-PSMA-1, Glu-CO-Glu′-Amc-Ahx-Glu-Glu-Glu-Lys-Tyr-Cys-NH2] ({Glu-CO-γGlu}-[X1][Ahx]EEEKYC-NH2) | 1.69
CSC[C@H](NC(=O)N[C@@H](CCC(=O)O)C(=O)O)C(=O)O [ZJ24] | 8.31
